Experimental data as given in ChEMBL document CHEMBL5126526, “Non-nucleoside structured compounds with antiviral activity-past 10 years (2010-2020)” (2022).

Test system: Influenza A virus
Test: Antiviral activity against influenza A virus (A/California/04/2009 (H1N1pdm)) infected in BALB/c mouse assessed as fold reduction in viral titers in lung homogenates at 20 mg/kg per day, po BID treated 2 hrs prior to viral infection followed by compound redosing at 12 hrs for 6 days
Format: functional

Compound: O=C(O)[C@H]1C2CCC(CC2)[C@@H]1Nc1nc(-c2c[nH]c3ncc(F)cc23)ncc1F [PIMODIVIR]
- fold change (FC): 100
